Biological target: Tyrosine-protein kinase SYK (Homo sapiens) (UniProt P43405)
Assay: Inhibition of recombinant human full length N-terminal His6-tagged SYK expressed in baculovirus Sf21 insect cells preincubated for 5 mins followed by substrate addition after 30 to 60 mins in presence of ATP by fluorescence assay

IC50: > 10 µM
SMILES: C=CS(=O)(=O)N1CCC[C@@H]1Cn1cc(-c2ccc3c(c2)OCO3)c2c(N)ncnc21
